B1: D1: Isolated amidase domain (178-397), SEQ ID NO:20 (protein)
chain: MQAPKQKVKKASTKKALPKITKHITGYNMDKRGYNPKGVVLHNDAGGMNYKQYYNNLVNANYDRLARGIAHAYVDRTGIWEAIDESRIAWHVADGTRPGSGNHDFYGIEVNQSLRASDKEFLENEQAVFQFAAEKLKKWGLPANRNTVRLHNEFSQTSCPHRSMVLHTGLDPLYHSITEHARLKLKDYFIKQIRAYMDGKKPTSKVVVSKPGSASTPATRKLEHHHHHH
modifications: Bacteriophage Phi SH2
B2: E1: Amidase plus SH3b domain (178-493), SEQ ID NO:24 (protein)
chain: MQAPKQKVKKASTKKALPKITKHITGYNMDKRGYNPKGVVLHNDAGGMNYKQYYNNLVNANYDRLARGIAHAYVDRTGIWEAIDESRIAWHVADGTRPGSGNHDFYGIEVNQSLRASDKEFLENEQAVFQFAAEKLKKWGLPANRNTVRLHNEFSQTSCPHRSMVLHTGLDPLYHSITEHARLKLKDYFIKQIRAYMDGKKPTSKVVVSKPGSASTPATRKDANGYRENPHGTLYKEEHATFTANANIITRYVGPFTNMPQAGILKAGQTIIYDEVMKQDGYIWVGYTAYNGKRVYLPVRKWNRETDSVGKLWGVISLEHHHHHH
modifications: Bacteriophage Phi SH2
B3: B1: Fusion of intact φSH2 CHAP and SH3b domains (1-166 + 341-493), SEQ ID NO:12 (protein)
chain: MKTQAEINKRLDAYRKGTVDSPYRVKVWTSYDNRFYPMEPGCIDVDKSFHAQCADLTIDYILWLTDNEFRIRGNAKDAINPKKNKLPEGWKIVLNRPSTVPRKGWIAVFTDGTYWEYGHIGMVYDGGNTSRFQILEQNWNGWANKKPSLRWDNYYGLTHFIVPPVALEVLHTGLDPLYHSITEHARLKLKDYFIKQIRAYMDGKKPTSKVVVSKPGSASTPATRKDANGYRENPHGTLYKEEHATFTANANIITRYVGPFTNMPQAGILKAGQTIIYDEVMKQDGYIWVGYTAYNGKRVYLPVRKWNRETDSVGKLWGVISLEHHHHHH
modifications: Bacteriophage Phi SH2
B4: C1: CHAP plus amidase domain, lacks SH3b (1-397), SEQ ID NO:16 (protein)
chain: MKTQAEINKRLDAYRKGTVDSPYRVKVWTSYDNRFYPMEPGCIDVDKSFHAQCADLTIDYILWLTDNEFRIRGNAKDAINPKKNKLPEGWKIVLNRPSTVPRKGWIAVFTDGTYWEYGHIGMVYDGGNTSRFQILEQNWNGWANKKPSLRWDNYYGLTHFIVPPVAKENKAVSSSKQQAPKQKVKKASTKKALPKITKHITGYNMDKRGYNPKGVVLHNDAGGMNYKQYYNNLVNANYDRLARGIAHAYVDRTGIWEAIDESRIAWHVADGTRPGSGNHDFYGIEVNQSLRASDKEFLENEQAVFQFAAEKLKKWGLPANRNTVRLHNEFSQTSCPHRSMVLHTGLDPLYHSITEHARLKLKDYFIKQIRAYMDGKKPTSKVVVSKPGSASTPATRKLEHHHHHH
modifications: Bacteriophage Phi SH2

How the values were obtained:
MRSA strain NRS382 = assay: Control of systemic MRSA infection in a murine model; type: in vivo, Balb/c mice
S. aureus Newman cells [1] = assay: Zymogram with S. aureus Newman cells embedded in the gel; type: cell-based; details: 5 μg protein
Procedure: All purified proteins were analyzed with 15% SDS-PAGE, using a Kaleidoscope Precision Plus Protein Standard (BioRad, Hercules, Calif.). For zymograms, a 300 mL culture volume equivalent of live mid-log phase (OD600nm=0.4-0.6) cells of S. aureus strain Newman was embedded in the gel during polymerization. The protein samples were boiled in Laemmli sample buffer (BioRad) with β-mercaptoethanol, and electrophoresed with identical buffers and voltage for one hour in both the SDS-PAGE and the zymogram using a Mini-Protean TETRA gel system (BioRad). SDS gels were Coomassie stained and zymograms were washed in excess water and further incubated in deionized water for 60 min, followed by incubation in 10 mM Tris, pH 8.0 with 150 mM or 300 mM NaCl for 80 min. Areas of clearing in the turbid zymogram gel indicate a lytic protein in the gel.

S. aureus Newman cells [2] = assay: Turbidity reduction assay; type: cell-based, Staphylococcus aureus; details: 1 μM protein; for lytic activity in turbidity reduction assays (in words): different NaCl concentrations; for lytic (specific) activity compared with the full length φSH2 lysin: at optimum salt concentration
Procedure: The turbidity reduction assay measures a decrease in optical density of a bacterial suspension due to lysis of the target bacteria by a lytic protein. The assays were performed in a 96-well dish format essentially as described previously (Donovan et al. 2006, supra). In order to reduce the variability of the assay, frozen stocks of S. aureus Newman substrate cells were prepared in a large batch as described by Becker et al. (2009b, supra). Immediately prior to the assay, the frozen cells were thawed, washed, and resuspended in the desired assay buffer such that when 100 μl of cell suspension were added to 100 μl of lysis buffer+/−protein, the final suspension has an OD600nm of ˜1.0.
Protein constructs were assayed at a concentration of 1 μM, and the assay was performed at room temperature, measuring the OD600nm at 1 min intervals for 45 min. Buffer without enzyme served as the control. The steepest slopes of the resulting lysis curves, which correspond to the lytic activities of the proteins, were determined by a sliding window over each group of three consecutive time points for the entire 45 min period. Specific activities were expressed as ΔOD600nm/min/μM, and the “no enzyme” control value was subtracted from each experimental value.
In order to determine the effect of salt concentration on lytic activity, turbidity reduction assays were performed in 10 mM Tris buffers at pH 7.5 with varying NaCl concentrations between 0 mM and 600 mM. Accordingly, the influence of pH was determined by using a series of different buffers with pH values ranging from 3.5 to 10.0. Citrate buffers were used for pH 3.5, 4.5, 5.5, and 6.0, MOPS buffers for pH 6.5, 7.0, and 7.5, Tris buffers for pH 8.0 and 9.0, and Carbonate/bicarbonate buffer for pH 10.0. The concentration of the buffer substance in all buffers used was 20 mM, and the NaCl concentration was 200 mM. To test the effect of bivalent metal ions, assays were performed in 10 mM Tris, 200 mM NaCl, pH 7.5 supplemented with MgCl2, MnCl2, or CaCl2 at different concentrations (0.1 mM, 1 mM, 10 mM), buffer without metal ions serving as control.

[3] = 0 hours, mice infected i.p. with MRSA NRS382, treated 30 min post infection (φSH2 200 μg/mouse i.p.; Vancomycin 375 μg/mouse s.c.; Oxacillin 1250 μg/mouse s.c.)
[4] = 4 hours, same infection and treatment
[5] = 8 hours, same infection and treatment
[6] = 12 hours, same infection and treatment
[7] = 16 hours, same infection and treatment
[8] = 20 hours, same infection and treatment
[9] = 24 hours, same infection and treatment
[10] = 28 hours, same infection and treatment
[11] = 32 hours, same infection and treatment
[12] = 36 hours, same infection and treatment
[13] = 40 hours, same infection and treatment
[14] = 44 hours, same infection and treatment
[15] = water 60 min, then 10 mM Tris, 150 mM NaCl, pH 8.0 up to 80 min
[16] = after incubation in deionized water for 60 min

Row | Molecule | % Survival (MRSA strain NRS382; [3]) | % Survival (MRSA strain NRS382; [4]) | % Survival (MRSA strain NRS382; [5]) | % Survival (MRSA strain NRS382; [6]) | % Survival (MRSA strain NRS382; [7]) | % Survival (MRSA strain NRS382; [8]) | % Survival (MRSA strain NRS382; [9]) | % Survival (MRSA strain NRS382; [10]) | % Survival (MRSA strain NRS382; [11]) | % Survival (MRSA strain NRS382; [12]) | % Survival (MRSA strain NRS382; [13]) | % Survival (MRSA strain NRS382; [14]) | lytic activity in turbidity reduction assays (in words) (S. aureus Newman cells [2]) | lysis in zymogram (S. aureus Newman cells [1]; [15]) | lytic (specific) activity compared with the full length φSH2 lysin (S. aureus Newman cells [2]) | lysis in zymogram (S. aureus Newman cells [1]; [16]) | also measured
1 | Cc1onc(-c2ccccc2)c1C(=O)N[C@@H]1C(=O)N2[C@@H]1SC(C)(C)[C@@H]2C(=O)O [Oxacillin] | 100% | 100% | 100% | 100% | 100% | 40% | 40% | 30% | 30% | 30% | 30% | 30% |  |  |  |  | survival rate (MRSA strain NRS382; after 16 to 20 hours, Oxacillin 1250 μg/mouse s.c. 30 min post infection): less than 40%
2 | CN[C@H](CC(C)C)C(=O)N[C@H]1C(=O)N[C@@H](CC(N)=O)C(=O)N[C@H]2C(=O)N[C@H]3C(=O)N[C@H](C(=O)N[C@H](C(=O)O)c4cc(O)cc(O)c4-c4cc3ccc4O)[C@H](O)c3ccc(c(Cl)c3)Oc3cc2cc(c3O[C@@H]2O[C@H](CO)[C@@H](O)[C@H](O)[C@H]2O[C@H]2C[C@](C)(N)[C@H](O)[C@H](C)O2)Oc2ccc(cc2Cl)[C@H]1O [Vancomycin] | 100% | 100% | 100% | 100% | 100% | 100% | 100% | 100% | 100% | 100% | 100% | 100% |  |  |  |  | % Survival (MRSA strain NRS382; 48 hours (end of the experiment), same infection and treatment): 100%
3 | B1 |  |  |  |  |  |  |  |  |  |  |  |  | only background levels of activity |  |  |  | lysis in zymogram (S. aureus Newman cells [1]; water 60 min, then 10 mM Tris, 300 mM NaCl, pH 8.0 for 80 min): pronounced lytic band
4 | B2 |  |  |  |  |  |  |  |  |  |  |  |  |  | only very faint lysis | about half the activity |  | 
5 | B3 |  |  |  |  |  |  |  |  |  |  |  |  | completely abolished its activity | considerably weaker |  | faint zones of lysis | 
6 | B4 |  |  |  |  |  |  |  |  |  |  |  |  | drastically reduced activity | considerably weaker | about half the activity | faint zones of lysis | 
